Each compound was assayed against T1, hQ23 (HEK-293 cell line stably transfected with one of the members of the KCNQ family) (Homo sapiens, UniProt O43525+O43526) (assay: Thallium flux assay for KCNQ channel blockers (FLIPR, BTC dye)). Conditions: Table 2; thallium flux, HEK-293.
T1 construct: expressed in transfected cells; host or cells: HEK-293, stably transfected
T1 sequence (O43526 whole entry): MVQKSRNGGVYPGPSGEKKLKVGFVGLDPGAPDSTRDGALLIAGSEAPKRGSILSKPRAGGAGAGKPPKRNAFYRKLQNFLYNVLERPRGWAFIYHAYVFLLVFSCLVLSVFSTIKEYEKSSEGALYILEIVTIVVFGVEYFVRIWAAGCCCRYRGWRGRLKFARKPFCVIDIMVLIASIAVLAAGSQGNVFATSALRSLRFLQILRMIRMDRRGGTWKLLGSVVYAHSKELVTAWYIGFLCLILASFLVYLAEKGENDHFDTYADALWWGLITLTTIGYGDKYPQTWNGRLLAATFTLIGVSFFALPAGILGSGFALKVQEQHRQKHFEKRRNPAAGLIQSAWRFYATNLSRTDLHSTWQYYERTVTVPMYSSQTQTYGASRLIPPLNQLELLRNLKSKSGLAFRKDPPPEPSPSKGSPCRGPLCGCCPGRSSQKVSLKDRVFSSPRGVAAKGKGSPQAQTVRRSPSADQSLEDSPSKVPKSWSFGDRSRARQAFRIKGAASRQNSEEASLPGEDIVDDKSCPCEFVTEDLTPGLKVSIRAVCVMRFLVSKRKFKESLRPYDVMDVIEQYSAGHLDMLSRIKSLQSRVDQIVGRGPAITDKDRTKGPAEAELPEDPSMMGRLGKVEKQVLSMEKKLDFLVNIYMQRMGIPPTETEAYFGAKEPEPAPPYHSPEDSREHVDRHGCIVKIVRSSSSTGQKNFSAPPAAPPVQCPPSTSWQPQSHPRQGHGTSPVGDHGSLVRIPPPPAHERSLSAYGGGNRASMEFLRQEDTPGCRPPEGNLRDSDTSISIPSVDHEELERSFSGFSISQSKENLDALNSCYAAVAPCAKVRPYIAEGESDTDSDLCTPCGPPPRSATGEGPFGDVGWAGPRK
T1 sequence (O43525 whole entry): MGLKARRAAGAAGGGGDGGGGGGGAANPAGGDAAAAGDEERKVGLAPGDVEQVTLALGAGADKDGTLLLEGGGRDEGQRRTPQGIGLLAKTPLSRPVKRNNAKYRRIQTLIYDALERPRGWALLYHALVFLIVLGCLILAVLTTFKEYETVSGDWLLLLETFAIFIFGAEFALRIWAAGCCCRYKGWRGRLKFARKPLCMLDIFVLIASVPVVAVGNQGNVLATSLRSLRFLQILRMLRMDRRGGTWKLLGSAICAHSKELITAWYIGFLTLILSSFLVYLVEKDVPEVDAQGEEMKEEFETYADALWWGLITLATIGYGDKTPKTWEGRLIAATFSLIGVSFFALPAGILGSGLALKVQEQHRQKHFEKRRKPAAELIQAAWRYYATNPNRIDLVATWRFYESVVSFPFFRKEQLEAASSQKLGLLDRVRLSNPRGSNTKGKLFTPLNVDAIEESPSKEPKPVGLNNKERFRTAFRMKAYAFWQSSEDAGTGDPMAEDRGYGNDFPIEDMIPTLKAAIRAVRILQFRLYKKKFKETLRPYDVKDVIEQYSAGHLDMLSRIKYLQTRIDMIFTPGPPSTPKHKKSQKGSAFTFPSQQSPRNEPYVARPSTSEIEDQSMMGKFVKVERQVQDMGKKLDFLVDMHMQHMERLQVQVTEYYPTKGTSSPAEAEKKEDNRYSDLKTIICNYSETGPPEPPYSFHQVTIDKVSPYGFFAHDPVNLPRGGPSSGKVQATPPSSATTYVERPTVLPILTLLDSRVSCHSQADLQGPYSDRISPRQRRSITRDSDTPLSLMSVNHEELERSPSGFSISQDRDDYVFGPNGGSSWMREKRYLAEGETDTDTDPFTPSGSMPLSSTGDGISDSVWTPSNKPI
Format: cell-based
Outline: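 FLIPR thallium flux readout (BTC dye, 2 μM AM ester) in stably transfected KCNQ HEK-293 cells, chloride-free HEPES buffer pH 7.3, Tl2SO4 stimulus. IC50s were fitted with a single-site logistic equation across 10 points at 1:3 dilutions, defined as 50% of positive-control block; minimal active concentration meant signal ≥4 SD over DMSO controls.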
An EC50 of 0.041 µM was found for `CC1CCCN(c2ncc(C(=O)NCc3cc(F)cc(C(F)(F)F)c3)c(C3(c4ccccc4)CC3)n2)C1` (stereo not drawn) [Example 47, 5-pyrimidinecarboxamide, N-[[3-fluoro-5-(trifluoromethyl)phenyl]methyl]-2-(3-methyl-1-piperidinyl)-4-(1-phenylcyclopropyl)-] in this work.
An EC50 of 0.575 µM was found for `CC1CCC(Nc2ncc(C(=O)NC(C)c3ccc(F)cc3)c(C3(c4ccccc4)CC3)n2)CC1` (stereo not drawn) [Example 49, 5-pyrimidinecarboxamide, N-[1-(4-fluorophenyl)ethyl]-2-[(4-methylcyclohexyl)amino]-4-(1-phenylcyclopropyl)-] in this work.
An EC50 of 0.326 µM was found for `CC1CCCN(c2ncc(C(=O)NCc3ccc(Cl)cc3Cl)c(C3(c4ccccc4)CC3)n2)C1` (stereo not drawn) [Example 40, 5-pyrimidinecarboxamide, N-[(2,4-dichlorophenyl)methyl]-2-(3-methyl-1-piperidinyl)-4-(1-phenylcyclopropyl)-] in this work.
An EC50 of 0.413 µM was found for `O=C(NCc1ccc2c(c1)OCO2)c1cnc(N2CCCC2)nc1C1(c2ccccc2)CC1` [Example 32, 5-pyrimidinecarboxamide, N-(1,3-benzodioxol-5-ylmethyl)-4-(1-phenylcyclopropyl)-2-(1-pyrrolidinyl)-] in this work.

Same assay, conditions: Table 3; thallium flux, HEK-293
An EC50 of 0.09 µM was found for `CC1CCN(c2ncc(C(=O)NCc3ccc4c(c3)OCO4)c(C3(c4ccc(Cl)cc4)CCC3)n2)CC1` [Example 58, 5-pyrimidinecarboxamide, N-(1,3-benzodioxol-5-ylmethyl)-4-[1-(4-chlorophenyl)cyclobutyl]-2-(4-methyl-1-piperidinyl)-] in this work.
An EC50 of 0.614 µM was found for `O=C(NCc1cccc2ccccc12)c1cnc(NC2CC2)nc1C1(c2ccc(Cl)cc2)CCC1` [Example 60, 5-pyrimidinecarboxamide, 4-[1-(4-chlorophenyl)cyclobutyl]-2-(cyclopropylamino)-N-(1-naphthalenylmethyl)-] in this work.
An EC50 of 0.01 µM was found for `CC1CCCN(c2ncc(C(=O)NCc3cc(F)cc(C(F)(F)F)c3)c(C3(c4ccc(Cl)cc4)CCC3)n2)C1` (stereo not drawn) [Example 66, 5-pyrimidinecarboxamide, 4-[1-(4-chlorophenyl)cyclobutyl]-N-[[3-fluoro-5-(trifluoromethyl)phenyl]methyl]-2-(3-methyl-1-piperidinyl)-] in this work.

Same assay, conditions: hQ23 cells, thallium flux
An EC50 of 0.637 µM was found for `CCN(Cc1ccccc1)C(=O)c1cnc(NC2CCC(C)CC2)nc1C1(c2ccc(F)cc2)CCCC1` (stereo not drawn) [Example 228, 5-pyrimidinecarboxamide, N-ethyl-4-[1-(4-fluorophenyl)cyclopentyl]-2-[(4-methylcyclohexyl)amino]-N-(phenylmethyl)-] in this work.
An EC50 of 0.016 µM was found for `CC1CCN(c2ncc(C(=O)NCc3ccc(F)cc3F)c(C3(c4ccc(Cl)cc4)CCCC3)n2)CC1` [Example 188, 5-pyrimidinecarboxamide, 4-[1-(4-chlorophenyl)cyclopentyl]-N-[(2,4-difluorophenyl)methyl]-2-(4-methyl-1-piperidinyl)-] in this work.
An EC50 of 0.272 µM was found for `CC1CCCN(c2ncc(C(=O)N3CCc4ccccc4C3)c(C3(c4ccc(F)cc4)CCCC3)n2)C1` (stereo not drawn) [Example 211, isoquinoline, 2-[[4-[1-(4-fluorophenyl)cyclopentyl]-2-(3-methyl-1-piperidinyl)-5-pyrimidinyl]carbonyl]-1,2,3,4-tetrahydro-] in this work.
An EC50 of 0.535 µM was found for `O=C(c1cnc(NC2CCCC2)nc1C1(c2ccc(Cl)cc2)CCCC1)N1CCc2ccccc2C1` [Example 142, isoquinoline, 2-[[4-[1-(4-chlorophenyl)cyclopentyl]-2-(cyclopentylamino)-5-pyrimidinyl]carbonyl]-1,2,3,4-tetrahydro-] in this work.
An EC50 of 0.27 µM was found for `CC1CCN(c2ncc(C(=O)N(C)Cc3ccccc3)c(C3(c4ccccc4)CCCC3)n2)CC1` [Example 70, 5-pyrimidinecarboxamide, N-methyl-2-(4-methyl-1-piperidinyl)-4-(1-phenylcyclopentyl)-N-(phenylmethyl)-] in this work.
An EC50 of 0.142 µM was found for `O=C(NCc1cccc2ccccc12)c1cnc(N2CCCC2)nc1C1(c2ccc(Cl)cc2)CCCC1` [Example 167, 5-pyrimidinecarboxamide, 4-[1-(4-chlorophenyl)cyclopentyl]-N-(1-naphthalenylmethyl)-2-(1-pyrrolidinyl)-] in this work.
An EC50 of 0.482 µM was found for `CCN(C(=O)c1cnc(NC2CCCC2)nc1C1(c2ccc(F)cc2)CCCC1)C1CCCCC1` [Example 217, 5-pyrimidinecarboxamide, N-cyclohexyl-2-(cyclopentylamino)-N-ethyl-4-[1-(4-fluorophenyl)cyclopentyl]-] in this work.
An EC50 of 0.124 µM was found for `CC1CCCN(c2ncc(C(=O)NC(C)c3ccc(F)cc3)c(C3(c4ccc(Cl)cc4)CCCC3)n2)C1` (stereo not drawn) [Example 198, 5-pyrimidinecarboxamide, 4-[1-(4-chlorophenyl)cyclopentyl]-N-[1-(4-fluorophenyl)ethyl]-2-(3-methyl-1-piperidinyl)-] in this work.
An EC50 of 0.717 µM was found for `O=C(NCc1ccc2c(c1)OCO2)c1cnc(NC2CC2)nc1C1(c2ccc(Cl)cc2)CCCC1` [Example 150, 5-pyrimidinecarboxamide, N-(1,3-benzodioxol-5-ylmethyl)-4-[1-(4-chlorophenyl)cyclopentyl]-2-(cyclopropylamino)-] in this work.
An EC50 of 0.442 µM was found for `CC(NC(=O)c1cnc(N2CCN(C)CC2)nc1C1(c2ccccc2)CCCC1)c1ccc(F)cc1` (stereo not drawn) [Example 133, 5-pyrimidinecarboxamide, N-[1-(4-fluorophenyl)ethyl]-2-(4-methyl-1-piperazinyl)-4-(1-phenylcyclopentyl)-] in this work.
An EC50 of 0.01 µM was found for `CC1CCCN(c2ncc(C(=O)NCc3cccc4ccccc34)c(C3(c4ccc(Cl)cc4)CCCC3)n2)C1` (stereo not drawn) [Example 169, 5-pyrimidinecarboxamide, 4-[1-(4-chlorophenyl)cyclopentyl]-2-(3-methyl-1-piperidinyl)-N-(1-naphthalenylmethyl)-] in this work.
An EC50 of 0.196 µM was found for `O=C(NCc1ccc(Cl)cc1Cl)c1cnc(NC2CC2)nc1C1(c2ccc(Cl)cc2)CCCC1` [Example 176, 5-pyrimidinecarboxamide, 4-[1-(4-chlorophenyl)cyclopentyl]-2-(cyclopropylamino)-N-[(2,4-dichlorophenyl)methyl]-] in this work.
An EC50 of 0.098 µM was found for `CC1CCN(c2ncc(C(=O)NC(C)c3ccc(F)cc3)c(C3(c4ccccc4)CCCC3)n2)CC1` (stereo not drawn) [Example 134, 5-pyrimidinecarboxamide, N-[1-(4-fluorophenyl)ethyl]-2-(4-methyl-1-piperidinyl)-4-(1-phenylcyclopentyl)-] in this work.

Same assay, conditions: hQ23 cells, thallium flux assay
An EC50 of 0.06 µM was found for `O=C(NCc1cc(F)cc(C(F)(F)F)c1)c1cnc(NC2CCCC2)nc1C1(c2ccc(F)cc2)CCCC1` [Example 280, 5-pyrimidinecarboxamide, 2-(cyclopentylamino)-4-[1-(4-fluorophenyl)cyclopentyl]-N-[[3-fluoro-5-(trifluoromethyl)phenyl]methyl]-] in this work.
An EC50 of 0.015 µM was found for `CC1CCN(c2ncc(C(=O)NCc3cccc4ccccc34)c(C3(c4ccc(F)cc4)CCCC3)n2)CC1` [Example 251, 5-pyrimidinecarboxamide, 4-[1-(4-fluorophenyl)cyclopentyl]-2-(4-methyl-1-piperidinyl)-N-(1-naphthalenylmethyl)-] in this work.
An EC50 of 0.436 µM was found for `O=C(NCc1ccc2c(c1)OCO2)c1cnc(NC2CC2)nc1C1(c2ccc(F)cc2)CCCC1` [Example 233, 5-pyrimidinecarboxamide, N-(1,3-benzodioxol-5-ylmethyl)-2-(cyclopropylamino)-4-[1-(4-fluorophenyl)cyclopentyl]-] in this work.
An EC50 of 0.039 µM was found for `CC1CCCN(c2ncc(C(=O)NCc3ccc4c(c3)OCO4)c(C3(c4ccc(F)cc4)CCCC3)n2)C1` (stereo not drawn) [Example 236, 5-pyrimidinecarboxamide, N-(1,3-benzodioxol-5-ylmethyl)-4-[1-(4-fluorophenyl)cyclopentyl]-2-(3-methyl-1-piperidinyl)-] in this work.
